Data from patent US20030134848A1, “Substituted 1-aza-2-imino-heterocycles and their use as nicotinic acetylcholin receptors activators” (priority 2000, published 2003).
Like-named read-outs stand apart in the source and are kept apart here.

How the values were obtained:
[1] = molecular target: T1, α4β2 subtype of nicotinic acetylcholine receptors (Rattus norvegicus, UniProt P09483+P12390); test: Binding assay at α4β2 subtype of nicotinic acetylcholine receptors ([3H]-cytisine, rat brain membrane)
T1 construct: rat brain membrane obtained from whole homogenized brain; from tissue; host or cells: whole brain of Fischer-344 male rats, membrane fraction
T1 sequence (P09483 31-630): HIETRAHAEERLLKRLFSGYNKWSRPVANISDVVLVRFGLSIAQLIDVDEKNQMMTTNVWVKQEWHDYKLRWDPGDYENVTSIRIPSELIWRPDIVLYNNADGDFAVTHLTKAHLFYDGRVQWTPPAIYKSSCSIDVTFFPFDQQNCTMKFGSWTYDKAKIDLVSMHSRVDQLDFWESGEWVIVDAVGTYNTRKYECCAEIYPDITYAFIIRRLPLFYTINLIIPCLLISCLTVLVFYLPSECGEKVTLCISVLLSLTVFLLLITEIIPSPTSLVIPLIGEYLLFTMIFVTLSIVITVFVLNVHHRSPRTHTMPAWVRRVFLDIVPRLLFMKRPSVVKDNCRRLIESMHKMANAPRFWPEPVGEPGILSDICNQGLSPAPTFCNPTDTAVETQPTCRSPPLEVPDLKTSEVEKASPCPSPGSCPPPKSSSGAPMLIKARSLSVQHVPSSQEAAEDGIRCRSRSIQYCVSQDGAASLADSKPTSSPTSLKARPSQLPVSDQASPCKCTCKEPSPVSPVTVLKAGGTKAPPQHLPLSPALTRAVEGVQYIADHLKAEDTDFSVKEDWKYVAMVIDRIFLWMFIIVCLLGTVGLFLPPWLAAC
T1 sequence (P12390 25-500): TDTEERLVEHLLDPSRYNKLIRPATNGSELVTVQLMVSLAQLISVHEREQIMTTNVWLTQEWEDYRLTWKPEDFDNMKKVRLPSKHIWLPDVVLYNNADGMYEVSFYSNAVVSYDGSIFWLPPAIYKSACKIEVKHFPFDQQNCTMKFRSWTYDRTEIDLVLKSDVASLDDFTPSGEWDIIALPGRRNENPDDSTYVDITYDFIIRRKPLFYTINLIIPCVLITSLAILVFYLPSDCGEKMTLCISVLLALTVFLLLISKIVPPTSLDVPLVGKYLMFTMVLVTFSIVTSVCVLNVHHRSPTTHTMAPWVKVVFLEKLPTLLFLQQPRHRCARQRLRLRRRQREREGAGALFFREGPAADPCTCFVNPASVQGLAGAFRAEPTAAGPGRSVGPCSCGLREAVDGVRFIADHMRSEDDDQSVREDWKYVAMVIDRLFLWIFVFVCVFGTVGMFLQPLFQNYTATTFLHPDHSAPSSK
Source text: (§1) The methods for evaluating the binding capabilities of the compounds at nicotinic acetylcholine receptors are different by subtypes of receptors. The binding capabilities of the compounds at α4β2 nicotinic acetylcholine receptors are examined using rat brain membrane obtained from whole homogenized brain, and determining the inhibiting rate of the compounds against [^3H]-cytisine binding to said brain membrane. Furthermore, the binding capabilities of the compounds at α1β1γδ nicotinic acetylcholine receptors are examined using homogenized rat muscle, and determining the inhibiting rate of the compounds against [^3H]-α-bungarotoxin binding to said muscle homogenate.
The affinity of the compounds of the present invention to α4β2 subtype of nicotinic acetylcholine receptors was performed by the following method, which was modified method described by Pabreza L. A., Dhawan S. & Kellar K. J., Mol. Pharm., 39, 9-12 (1990), and by Anderson D. J. & Arneric S. P., Eur. J. Pharm., 253, 261-267 (1994).
(1) Preparation of Rat Brain Membrane Containing α4β2 Subtype of Nicotinic Acetylcholine Receptors
Fischer-344 strain male rats (body weight: 200-240 g; 9 weeks old) obtained from Charles River Japan were used. Rats were housed in the breeding cage controlled of the room temperature at 23±1° C., and the humidity of 55±5% for 1 to 4 weeks. Rats (3 to 4 rats per a cage) were housed with lights on for 12 hours daily (from 7:00 to 19:00), and allowed free access to food and water.
Preparation of rat brain membrane containing α4β2 subtype of nicotinic acetylcholine receptors was performed as follow. That is, rat brains were isolated just after sacrificed by decapitation, washed with ice-cooled saline solution and then frozen at −80° C. with liquid nitrogen and stored till using. After thawing the frozen brain, the brain was homogenized in 10 volumes of ice-cooled buffer solution (50 mM of Tris-HCl, 120 mM of NaCl, 5 mM of KCl, 1 mM of MgCl2, 2 mM of CaCl2; pH 7.4; 4° C.) using homogenizer (HG30, Hitachi Kohki Ltd.) for 30 seconds, and the homogenate were centrifuged under 1,000×G for 10 minutes at 4° C. The resulting supernatant was separated and the pellet was homogenized again with half volume of aforementioned prior buffer solution and centrifuged under the same conditions. Combined supernatant was further centrifuged under 40,000×G for 20 minutes at 4° C. The pellet was suspended in buffer solution and used for binding assays at receptors.
(2) Experiments of α4β2 Subtype of Nicotinic Acetylcholine Receptors Binding
Suspensions of membrane pellets containing 400-600 μg of protein were added to test tubes containing test compounds and [^3H]-cytisine (2 nM) in a final volume of 200 μl and incubated for 75 minutes in ice-cooled bath. The samples were isolated by vacuum filtration onto Whatman GF/B filters, which were prerinsed with 0.5% polyethylenimine just prior to sample filtration, using Brandel multi manifold cell harvester. The filters were rapidly washed with buffer solution (3×1 ml). The filters were counted in 3 ml of clearsol I (Nacalai Tesque Inc.).
The analyses of the experimental results were conducted by using the Accufit Competition Program (Beckman Ltd.).

[2] = molecular target: α1β1γδ subtype of nicotinic acetylcholine receptors (Rattus norvegicus, UniProt P18916+P25108+P25110); test: biochemical; assay type: binding; conditions: for Ki: read-out: Affinities for receptors Ki α1β1γδ, rat muscle extract, [3H]-α-Bgt 1 nM
α1β1γδ subtype of nicotinic acetylcholine receptors, sequence (P25109 24-501): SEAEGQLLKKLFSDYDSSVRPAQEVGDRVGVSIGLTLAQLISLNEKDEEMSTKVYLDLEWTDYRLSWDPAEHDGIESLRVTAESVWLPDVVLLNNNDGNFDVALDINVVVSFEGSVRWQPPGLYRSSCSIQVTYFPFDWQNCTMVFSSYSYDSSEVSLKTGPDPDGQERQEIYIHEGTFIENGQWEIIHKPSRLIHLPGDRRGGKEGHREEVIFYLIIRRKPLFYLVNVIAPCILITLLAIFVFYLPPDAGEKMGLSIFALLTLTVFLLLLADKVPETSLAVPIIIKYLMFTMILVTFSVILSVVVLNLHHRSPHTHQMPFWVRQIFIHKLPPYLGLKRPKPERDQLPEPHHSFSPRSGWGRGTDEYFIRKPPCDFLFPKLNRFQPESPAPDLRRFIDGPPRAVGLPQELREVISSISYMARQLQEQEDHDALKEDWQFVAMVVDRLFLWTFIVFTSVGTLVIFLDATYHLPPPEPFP
α1β1γδ subtype of nicotinic acetylcholine receptors, sequence (P25110 22-517): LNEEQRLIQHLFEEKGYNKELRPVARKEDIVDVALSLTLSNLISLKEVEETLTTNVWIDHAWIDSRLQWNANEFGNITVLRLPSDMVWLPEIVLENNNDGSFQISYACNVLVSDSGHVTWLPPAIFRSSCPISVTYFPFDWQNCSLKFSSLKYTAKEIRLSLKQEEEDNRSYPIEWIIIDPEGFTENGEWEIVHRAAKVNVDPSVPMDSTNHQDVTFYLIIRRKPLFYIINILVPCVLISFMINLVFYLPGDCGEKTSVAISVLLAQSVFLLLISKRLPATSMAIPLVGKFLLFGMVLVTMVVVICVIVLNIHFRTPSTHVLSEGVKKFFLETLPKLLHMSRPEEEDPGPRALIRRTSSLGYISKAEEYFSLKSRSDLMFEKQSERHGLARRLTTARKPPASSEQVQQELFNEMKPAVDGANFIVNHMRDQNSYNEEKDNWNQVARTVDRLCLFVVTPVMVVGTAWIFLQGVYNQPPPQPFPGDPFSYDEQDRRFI
α1β1γδ subtype of nicotinic acetylcholine receptors, sequence (P25108 21-457): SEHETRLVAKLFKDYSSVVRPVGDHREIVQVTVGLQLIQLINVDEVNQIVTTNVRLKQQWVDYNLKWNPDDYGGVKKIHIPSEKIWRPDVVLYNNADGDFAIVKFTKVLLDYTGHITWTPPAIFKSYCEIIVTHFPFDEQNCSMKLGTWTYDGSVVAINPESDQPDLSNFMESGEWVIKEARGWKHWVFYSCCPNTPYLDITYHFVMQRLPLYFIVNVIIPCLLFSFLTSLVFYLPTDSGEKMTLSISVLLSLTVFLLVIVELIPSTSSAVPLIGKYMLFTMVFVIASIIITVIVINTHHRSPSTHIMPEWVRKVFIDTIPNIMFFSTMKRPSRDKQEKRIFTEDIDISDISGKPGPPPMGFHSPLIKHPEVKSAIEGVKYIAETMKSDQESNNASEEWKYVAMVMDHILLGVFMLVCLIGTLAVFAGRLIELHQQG
α1β1γδ subtype of nicotinic acetylcholine receptors, sequence (P18916 23-519): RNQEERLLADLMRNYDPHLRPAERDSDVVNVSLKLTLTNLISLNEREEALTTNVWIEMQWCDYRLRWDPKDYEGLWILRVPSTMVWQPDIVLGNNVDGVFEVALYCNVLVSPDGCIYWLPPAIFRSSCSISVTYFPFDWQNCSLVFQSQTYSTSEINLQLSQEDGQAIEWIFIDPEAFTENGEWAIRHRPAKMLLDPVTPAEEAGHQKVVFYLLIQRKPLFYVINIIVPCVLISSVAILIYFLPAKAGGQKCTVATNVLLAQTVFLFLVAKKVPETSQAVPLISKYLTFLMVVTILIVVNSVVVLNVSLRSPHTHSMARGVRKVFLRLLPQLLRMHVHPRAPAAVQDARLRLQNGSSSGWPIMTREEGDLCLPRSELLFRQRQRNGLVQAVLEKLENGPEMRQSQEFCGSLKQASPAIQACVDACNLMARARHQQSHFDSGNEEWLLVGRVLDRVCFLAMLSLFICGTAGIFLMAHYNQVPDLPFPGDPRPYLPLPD
Source text: as §1
The affinity of the compounds of the present invention to α1β1γδ subtype of nicotinic acetylcholine receptors was measured by the following method, which was modified method described by Garcha H. S., Thomas P., Spivak C. E., Wonnacott S. & Stolerman I. P., Psychropharmacology, 110, 347-354 (1993).
(1) Preparation of Rat Skeletal Muscles Containing α1β1γδ Subtype of Nicotinic Acetylcholine Receptors
The substantially same animals described in the Biological Experiment 1 were used.
The isolation of α1β1γδ subtype of nicotinic acetylcholine receptors was performed as follow. That is, rat posterior skeletal muscles were isolated just after sacrificed by decapitation, washed with ice-cooled saline solution and then frozen at −80° C. with liquid nitrogen and stored till using. After thawing the frozen muscles, tissue was homogenized (40% w/v) with buffer solution [2.5 mM of sodium phosphate buffer (pH:7.2), 90 mM of NaCl, 2 mM of KCl, 1 mM of EDTA, 2 mM of benzamidine, 0.1 mM of benzethonium chloride, 0.1 mM of PMSF, 0.01% of sodium azide] in Waring blender (Waring blender 34BL97; WARING PRODUCTS DIVISION DYNAMICS CORPORATION OF AMERICA) for 60 seconds. The homogenate were centrifuged under 20,000×G for 60 minutes at 4° C. The supernatant was separated and the resulting pellet was added to the same buffer (1.5 ml/g wet weight), and homogenized under the same conditions. Triton X100 (2% w/v) was added and the mixture was stirred for 3 hours at 4° C. The centrifugation at 100,000×G for 60 minutes at 4° C. yielded the rat muscle extract as supernatant. This was stored at 4° C. for up to 4 weeks, and used for binding assays at receptors.
(2) Experiments of α1β1γδ Subtype of Nicotinic Acetylcholine Receptors Binding
Receptors binding experiments were performed as follow. That is, the extract of rat muscle containing 600-900 μg of protein was added to test tubes containing test compounds and incubated for 15 minutes at 37° C. Then, to this mixture was added 1 nM of [^3H]-α-bungarotoxin (α-Bgt) and further incubated for 2 hours. The samples were isolated by vacuum filtration onto Whatman GF/B filters, which were prerinsed with 0.5% polyethylenimine just prior to sample filtration, using Brandel multi manifold cell harvester. The filters were rapidly rinsed with washing solution (10 mM of KH2PO4, 150 mM of NaCl, pH 7.2, room temperature) (5×1 ml). The filters were counted in 3 ml of clearsol I (Nacalai Tesque Inc.). The determination of nonspecific binding was incubated in the presence of 1 μM α-Bgt. The solutions containing α-Bgt (labeled/non-labeled) were prepared by using buffer solution containing 0.25% of BSA. In the receptor binding experiments, said buffer solution was added for adjusting the final concentration of BSA to be 0.05%.
The analyses of the experimental results were conducted by the same way as described in the Biological Experiment 1.

[3] = rat brain membrane, [3H]-cytisine 2 nM, read-out: Affinities for receptors Ki α4β2
[4] = read-out: control % of [3H]-α-Bgt binding

Nc1nccn1CCc1cccnn1 [Compound 30, 2-amino-1-[2-(3-pyridazinyl)ethyl]imidazole]
Ki [1, 3]: 0.04 µM | Ki [2]: 80 µM

Nc1nccn1CCc1cnccn1 [Compound 31, 2-amino-1-[2-(2-pyrazinyl)ethyl]imidazole]
remaining activity at 1 µM ([1]; 1 μM of test compound, rat brain membrane, read-out: control % of [3H]-cytisine binding): 75% | remaining activity at 10 µM ([1]; 10 μM of test compound, rat brain membrane, read-out: control % of [3H]-cytisine binding): 22% | remaining activity at 100 µM [2, 4]: 110% | remaining activity at 1000 µM [2, 4]: 53%

Cc1ccc(CCn2ccnc2N)cn1 [Compound 11, 2-amino-1-[2-(6-methyl-3-pyridyl)ethyl]imidazole]
Ki [1, 3]: 0.021 µM | Ki [2]: 1150 µM

Nc1nccn1CCc1cnc(Cl)c(Cl)c1 [Compound 13, 2-amino-1-[2-(5,6-dichloro-3-pyridyl)ethyl]-imidazole]
Ki [1]: 0.0031 µM | Ki [2]: 40 µM

Nc1nccn1CCc1ccnnc1 [Compound 34, 2-amino-1-[2-(4-pyridazinyl)ethyl]imidazole]
Ki [1, 3]: 0.068 µM | Ki [2]: 1270 µM

Cc1cncc(CCn2ccnc2N)c1 [Compound 27, 2-amino-1-[2-(5-methyl-3-pyridyl)ethyl]imidazole]
Ki [1, 3]: 0.021 µM | Ki [2]: 339 µM

Nc1nccn1CCc1cnc(Cl)s1 [Compound 23, 2-amino-1-[2-(2-chloro-5-thiazolyl)ethyl]imidazole]
Ki [1]: 0.0085 µM | Ki [2]: 44 µM

Nc1nccn1CCc1cncc(Br)c1 [Compound 25, 2-amino-1-[2-(5-bromo-3-pyridyl)ethyl]imidazole]
Ki [1, 3]: 0.002 µM | Ki [2]: 36 µM

Nc1nccn1CCc1cccnc1 [Compound 14, 2-amino-1-[2-(3-pyridyl)ethyl]imidazole]
Ki [1, 3]: 0.0035 µM | Ki [2]: 223 µM

N=C1NCCCN1CCc1ccc(Cl)nc1 [Compound 12, 1-[2-(6-chloro-3-pyridyl)ethyl]-2-imino-1,2,3,4,5,6-hexahydro-pyrimidine]
Ki [1]: 0.0014 µM | Ki [2]: 12 µM

Nc1nccn1CCc1cncnc1 [Compound 29, 2-amino-1-[2-(5-pyrimidyl)ethyl]imidazole]
Ki [1]: 0.006 µM | Ki [2]: 447 µM
